Key:
[1] = thermodynamic stability of the crystalline form; type: physicochemical; conditions: as indicated by its high melting point of about 175° C.
From the text: (§1) The first embodiment of the present invention is directed to a substantially pure polymorphic form A of 5-cyclopropyl-2-(4-fluorophenyl)-6-[(2-hydroxyethyl)(methylsulfonyl)amino]-N-methyl-1-benzofuran-3-carboxamide. The terms “polymorphic form”, “crystal modification”, “polymorph”, and “crystalline form” are used interchangeably herein. As used herein, the terms “isolated” and/or “substantially pure” mean more than 50% of the crystalline 5-cyclopropyl-2-(4-fluorophenyl)-6-[(2-hydroxyethyl)(methylsulfonyl)amino]-N-methyl-1-benzofuran-3-carboxamide or salt thereof is present in the form described herein and preferably at least 70%, more preferably at least 80%, and most preferably at least 90% of the crystalline form described herein is present. […] The peaks shown therein include: 8.4°, 9.0°, 9.8°, 10.1°, 12.6°, 12.9°, 13.2°, 13.4°, 15.9°, 16.4°, 16.8°, 17.4°, 17.9°, 18.4°, 18.5°, 19.0°, 19.2°, 19.7°, 19.8°, 20.0°, 20.2°, 20.5°, 21.0°, 21.7°, 22.2°, 22.6°, 23.6°, 24.0°, 24.5°, 24.7°, 24.9°, 25.3°, 25.9°, 26.0°, 26.5°, 26.9°, 27.3°, 27.6°, 28.1°, 28.7°, […], 30.0°, 30.7°, 31.0°, 31.9°, 32.1°, 32.5°, 33.6°, 34.4°, 34.8°, 35.1°, 35.6°, 36.7°, 36.9°, 37.5°, 38.4°, 38.8°, 39.2° and 39.6° (2θ degrees); one of ordinary skill in the art will readily understand that an about 0.1° to about 0.2° variation for peak positions is typical. […]

[2] = hygroscopicity on exposure to air; type: physicochemical; conditions: exposed to air for a period of about 1 week
From the text: as §1

settling from suspension = type: physicochemical
From the text: as §1

hepatitis C virus = conditions: as disclosed in U.S. Patent Application Publication No. 2004-0162318; cited from earlier work

Row | Compound | thermodynamic stability of polymorph [1] | hygroscopicity [2] | settling from suspension (settling from suspension) | inhibition of the hepatitis C virus (hepatitis C virus)
1 | CNC(=O)c1c(-c2ccc(F)cc2)oc2cc(N(CCO)S(C)(=O)=O)c(C3CC3)cc12 [form A, 5-cyclopropyl-2-(4-fluorophenyl)-6-[(2-hydroxyethyl)(methylsulfonyl)amino]-N-methyl-1-benzofuran-3-carboxamide] | thermodynamically favored stable form | non-hygroscopic | tends to settle quickly from suspension | 
2 | CNC(=O)c1c(-c2ccc(F)cc2)oc2cc(N(CCO)S(C)(=O)=O)c(C3CC3)cc12 [5-cyclopropyl-2-(4-fluorophenyl)-6-[(2-hydroxyethyl)(methylsulfonyl)amino]-N-methyl-1-benzofuran-3-carboxamide] |  |  |  | potent inhibitor
3 | CNC(=O)c1c(-c2ccc(F)cc2)oc2cc(N(CCO)S(C)(=O)=O)c(C3CC3)cc12 [form B, 5-cyclopropyl-2-(4-fluorophenyl)-6-[(2-hydroxyethyl)(methylsulfonyl)amino]-N-methyl-1-benzofuran-3-carboxamide] |  |  | tends not to settle quickly from suspension | 

— patent publication US20070265335A1, “POLYMORPHS OF 5-CYCLOPROPYL-2-(4-FLUOROPHENYL)-6-[(2-HYDROXYETHYL)(METHYLSUFONYL)AMINO]-N-METHYL-1-BENZOFURAN-3-CARBOXAMIDE AND METHODS OF MAKING THE SAME” (WYETH, priority 2005, published 2007)
